Data on five substances can be found in patent US9096689B2, “Methods and compositions for inhibiting angiogenesis” (NORTHWESTERN UNIVERSITY, priority 2007, dated 2015).

The subject of assay [1] is PC-3 prostate cancer xenografts. The experiment in a line: tumorigenicity assay, PC-3 xenografts. It counts as in vivo, nude mice. Particulars: 10 mg/kg, i.p.; for growth of PC-3 prostate cancer xenografts: from day 5 post injection. Here is the method: PC-3 cells (2×10^6/site) were implanted into hindquarters of nude mice. On day 5 post injection, treatment was commenced with 34-mer and 18-mer (10 mg/kg, i.p.).

Assay [2] deals with Human microvascular endothelial cells. The experiment in a line: endothelial cell chemotaxis assay (bFGF-induced migration). Particulars: for inhibition of bFGF-induced migration (chemotaxis): peptide at increasing concentrations; for inhibitor activity on bFGF-induced migration compared with native PEDF: vs rhPEDF at 20 nM. In kind it is cell-based. Here is the method: The initial testing was done in the endothelial cell chemotaxis assay. Human microvascular endothelial cells to traverse gelatinized microporous membrane up the gradient of bFGF was tested in the absence and in the presence of the 14-, 18- and 23-mer peptides (FIG. 3). Human microvascular endothelial cells were plated on the lower side of gelatinized microporous membrane and allowed to adhere. The peptides (14-, 18 and 23-mer) were added at increasing concentrations to the opposite side of the gelatinized microporous membrane ([…]), alone, or in combination with basic fibroblast growth factor (bFGF, 10 ng/ml). The cells migratied to the opposite side of the membrane were counted in 10 high-powered (100×) fields. Every condition was tested in quadruplicate. bFGF-induced chemotaxis is shown (top line in each graph). Basal migration levels (0.1% bovine serum albumin) are indicated with the dotted line. Triangles (▴) show peptide alone; while squares (▪) show peptide with bFGF. The solid line (below the top line mentioned above) indicates the effect of the recombinant human PEDF (rhPEDF) at 20 nM.
Several truncated variants of P18 (SEQ ID NO:2) were generated, including an 11-mer (NFGYDLYRVRS; SEQ ID NO:102) which has the first 11 bases of P18, and an 8-mer, (NFGYDLYR; SEQ ID NO:119), which has the first 8 bases of P18. These variants were screened in endothelial cell apoptosis and chemotaxis assays, seeking those that inhibit chemotaxis and induce apoptosis with specific activity similar or better than that of P18. In particular, microvascular endothelial cells were plated in inverted modified Boyden chambers, and chemotaxis induced with bFGF (10 ng/ml). The cells migrated to bFGF were counted in 10 high-powered fields. Results for the 8-mer (SEQ ID NO:119) and the 11-mer (SEQ ID NO:102) are shown in FIGS. 12A and 12B respectively.

The next assay relates to angiogenesis. The experiment in a line: directed in vivo angiogenesis assay (DIVAA), s.c. matrigel angioreactors. On the set-up: species or system nude mice. Particulars: for anti-angiogenic effect in DIVAA: bFGF 37.5 and VEGF 12.5 ng/ml, day 7. How it is done: FIGS. 5A and 5B show the results of a corneal angiogenesis assay. The 34 mer and 18-mer peptides were incorporated with bFGF (50 ng/pellet) into slow-release sucralfate pellets, which were surgically implanted into the cornea of anesthetized mice, 0.5-1 mm from the vascular limbus. The responses were scored on day 5 post implantation and the ingrowth of blood vessels from the cornea to the pellet was considered a positive response. The responses were scored as positive corneas of total implanted: statistical significance was evaluated with Fisher's Exact test. P<0.05 was considered significant. […] The peptides were incorporated with a mix of bFGF and VEGF (37.5 and 12.5 ng/ml, respectively) into angioreactors filled with matrigel. The reactors were implanted s.c onto the flanks of the nude mice. On day 7, The reactors were harvested and photographed (5C). Endothelial cells collected from implants by dilution/centrifugation, stained with FITC-lectin and quantified by flow cytometry (5D).
Finally, the peptides were tested in vivo, in the corneal angiogenesis and directed in vivo angiogenesis assay (DIVAA). The 34-mer derivatives were compared in vivo with parental PEDF peptide, the 34-mer. FIG. 5 A, B: Corneal angiogenesis assay: the peptides were incorporated with bFGF (50 ng/pellet) into slow-release sucralfate pellets, which were surgically implanted into the cornea of anesthetized mice, 0.5-1 mm from the vascular limbus. The responses were scored on day 5 post implantation and the ingrowth of blood vessels from the cornea to the pellet was considered a positive response. The responses were scored as positive corneas of total implanted: statistical significance was evaluated with Fisher's Exact test. P<0.05 was considered significant. […] 5C, D. DIVAA of the 34-mer and derivative peptides. The peptides were incorporated with a mix of bFGF and VEGF (37.5 and 12.5 ng/ml, respectively) into angioreactors filled with matrigel. The reactors were implanted s.c onto the flanks of the nude mice. On day 7, the reactors were harvested and photographed (5C). Endothelial cells collected from implants by dilution/centrifugation, stained with FITC-lectin and quantified by flow cytometry (5D).

Assay [3] has as its system Human microvascular endothelial cells. Kind of assay: endothelial cell apoptosis assay (ApopTag / TUNEL). In kind it is cell-based. Particulars: for induction of endothelial cell apoptosis: HMVEC, overnight, low serum media, with or without bFGF, FIG. 4. Here is the method: Confluent HMVEC cells growing on coverslips were incubated overnight in low serum media (0.2% FBS in MCDB)±PEDF peptides in the presence or absence of bFGF. ApopTag Fluorescein kit (Chemicon) was used to determine apoptotic cells. […] 3-5 fields (10×) were analyzed with epi-fluorescent microscope, and cells were counted using MetaMorph software. Apoptotic (FITC positive) cells were calculated as a % of total cells stained with PI per field.
The ability of the 34-mer fragments to induce endothelial cell apoptosis was next measured (FIG. 4).
In further experiments, human microvascular endothelial cells were treated with PEDF18 (SEQ ID NO:2) and PEDF11 (SEQ ID NO:102). Apoptosis was measured after 24 hours with terminal dUTP Nick-end Labeling (TUNEL) assay. […] It is noted that one advantage of PEDF11 over longer PEDF derivatives is in that this sequence is below critical length so it can be non-immunogenic during continuous applications.

Assay [4] has as its system Mouse renal carcinoma cells (Renca, ATCC). Kind of assay: orthotopic renal cell carcinoma xenograft model (tumor growth and metastases). In kind it is in vivo. How it is done:
Mouse renal carcinoma cells (Renca, ATCC) were injected under the kidney capsule (0.5×10^6/site). Animals were randomly divided into 6 groups (8 per group) and the treatment started 5 days after inoculation (intraperitoneal injections). The following treatment groups were included: P18 (SEQ ID NO:2; 10 mg/kg); P18 (60 mg/kg); Rapamycin (R, 0.5 mg/kg); R+P18 (10 mg/kg) and R+P18 (60 mg/kg). The control group was treated with scrambled peptide, YFNGRSSPSNTNTYYVDRL (SEQ ID NO:51). After 17 days of treatment both kidneys were removed. To assess tumor growth, the weight of healthy kidney was subtracted from the weight of tumor-inoculated kidney, for each animal. The difference represents the weight of the tumor.
Metastases formation was also examined in the liver and lungs of the in the control treated animals and the groups treated with P18 and scrambled peptide (FIG. 9). The % affected organs is indicated under the representative images.

The next assay deals with corneal angiogenesis. The experiment in a line: corneal angiogenesis assay. It counts as in vivo, mice. Particulars: bFGF 50 ng/pellet; scored day 5. Here is the method: FIGS. 5A and 5B show the results of a corneal angiogenesis assay. The 34 mer and 18-mer peptides were incorporated with bFGF (50 ng/pellet) into slow-release sucralfate pellets, which were surgically implanted into the cornea of anesthetized mice, 0.5-1 mm from the vascular limbus. The responses were scored on day 5 post implantation and the ingrowth of blood vessels from the cornea to the pellet was considered a positive response. The responses were scored as positive corneas of total implanted: statistical significance was evaluated with Fisher's Exact test. P<0.05 was considered significant. […] Endothelial cells collected from implants by dilution/centrifugation, stained with FITC-lectin and quantified by flow cytometry (5D).
Finally, the peptides were tested in vivo, in the corneal angiogenesis and directed in vivo angiogenesis assay (DIVAA). […] The responses were scored on day 5 post implantation and the ingrowth of blood vessels from the cornea to the pellet was considered a positive response. The responses were scored as positive corneas of total implanted: statistical significance was evaluated with Fisher's Exact test. […] Endothelial cells collected from implants by dilution/centrifugation, stained with FITC-lectin and quantified by flow cytometry (5D).

Assay [5] deals with choroidal neovascularization. The experiment in a line: laser-induced choroidal neovascularization (CNV) mouse model. In kind it is in vivo, mice. How it is done:
This Example describes further characterization of P18 (PEDF18) and fragments thereof. […] Intravitreous injections of 1 μg (n=24), 10 μg (n=24) of PEDF18, or vehicle (n=21) were given at the day of laser photocoagulation-induced rupture of Bruch's membrane. Two weeks after laser induction, mice were euthanized and the area of CNV was measured. […] NV=neovascularization.

“Also recorded” adds a separate entry of the source.

“34-mer: 34-mer PEDF peptide (amino acids 44-77 at the N-terminus), parental PEDF peptide (DPFFKVPVNKLAAAVSNFGYDLYRVRSSMSPTTN) [reference compound]”: in assay [1], the “growth of PC-3 prostate cancer xenografts” value was “only marginal effect”.
AAAVSNFGYDLYRVRSSTSPTTN [23-mer]: the “inhibition of bFGF-induced migration (chemotaxis)” value (“inhibition” below) in assay [2] (bFGF 10 ng/ml) is “comparable to PEDF at low concentrations and lost its inhibitory activity at higher doses”. The “anti-angiogenic effect in DIVAA” value with angiogenesis is listed as “failed to inhibit angiogenesis”. Also, in assay [3], the “induction of endothelial cell apoptosis” value is reported as “failed to induced apoptosis”.
Take DLYRVRSSTSPTTN [14-mer]: the “inhibition” value in assay [2] (bFGF 10 ng/ml) is recorded as “inhibited bFGF-induced migration in a dose-dependent manner”. Besides, the “inhibitor activity on bFGF-induced migration compared with native PEDF” value in assay [2] is reported as “superior to that of native PEDF”. For the same substance, the “induction of endothelial cell apoptosis” value in assay [3] is “very weak induction of apoptosis”.
As for NFGYDLYRVRS [PEDF11], the “concentration at which chemotaxis is inhibited” value in assay [2] (bFGF 10 ng/ml, FIG. 12B) fell in the range of 1 to 10 nM. For the same substance, the “inhibition” value in assay [2] (bFGF 10 ng/ml) was “dose-dependent inhibition”. For the same substance, in assay [2] (chemotaxis inhibition and EC apoptosis, vs P18 (FIG. 3)), the “efficacy compared with P18” value is “comparable to that of P18”. Also, the “concentration causing EC apoptosis” value in assay [3] lay within 10 to 100 nM.
As for NFGYDLYRVRSSTSPTTN [18-mer], the “inhibition” value in assay [2] (bFGF 10 ng/ml) is given as “inhibited bFGF-induced migration in a dose-dependent manner”. For the same substance, the “inhibitor activity on bFGF-induced migration compared with native PEDF” value in assay [2] is “superior to that of native PEDF”. In addition, the “anti-angiogenic effect in DIVAA” value in the assay with angiogenesis is “showed the best anti-angiogenic characteristics”. In the assay on angiogenesis (in vitro and in vivo in the subcutaneous matrigel plug assays), the “blocking of VEGF-induced angiogenesis” value is reported as “effectively blocks VEGF-induced angiogenesis”. The “activity in blocking angiogenesis compared with the 34-mer” value in the assay with angiogenesis (mouse, in vivo) was “more active in blocking angiogenesis than the original 34-mer”. Also, the tumor weight entry in assay [4] (P18 alone, i.p., 17 days of treatment, vs scrambled peptide) was “significant (P<0.0003) decrease in tumor weight”. In addition, in assay [4] (P18 treatment, FIG. 9), the liver metastases entry was “eradicated liver metastases”. Also, in the assay on corneal angiogenesis, the “anti-angiogenic effect in corneal angiogenesis assay” value is listed as “showed the best anti-angiogenic characteristics”. For the same substance, in assay [3], the “induction of endothelial cell apoptosis” value is “more potent than the parental PEDF and as potent as the 34-mer”. Further, the “growth of PC-3 prostate cancer xenografts” value in assay [1] was “significantly inhibited the growth”. Besides, the tumor volume entry in assay [1] (FIG. 6) is on record as “substantial reduction in tumor volume”. The “area of CNV at laser sites” value in assay [5] (intravitreous 1 μg or 10 μg, two weeks after laser induction, vs vehicle) is listed as “significantly smaller areas of neovascularization”. In assay [5] (mouse, laser-induced, listed as PEDF18), the “choroidal neovascularization (overall effect)” value was “suppresses choroidal neovascularization; also recorded: effectively alleviated laser-induced choroidal neovascularization (CNV)”.
